# Where two headings read alike, the source gives them in different places.
# What was measured:
# [1] = tested on: CYP3A4 enhancer (PXRE)
# [2] = tested on: CYP3A4 mRNA (PXR)
# [3] = tested on: PXR / mdr1(dr4) response element; experiment: Transient transfection mdr1(dr4)-Luc reporter assay with PXR; settings: Caco-2 cells transiently co-transfected with mdr1(dr4)-Luc and PXR; 48 hours
# [4] = tested on: MDR1 P-glycoprotein mRNA; experiment: Northern blot of MDR1 P-glycoprotein expression (Example VI)
# Text: FIG. 31 depicts MDR1 gene expression in LS174T cells as analyzed by Northern blot. […] Total RNA from the colon adenocarcinoma cell line LS174T was isolated and fractionated on a 1% formaldehyde gel and transferred onto a nylon membrane. The RNA blot was hybridized to ^32P-labeled MDR1 cDNA probe (top panel) or 18s rRNA probe for normalization of RNA loading on the gel (bottom panel).
# (§1) FIG. 32A: Lanes 1 and 2, primary human hepatocytes; lanes 3 and 4, LS174T cells. FIG. 32B: Lanes 1 and 2, HepG2 cells; lanes 3 and 4, HepG2 that overexpress PXR (Hepg-PXR cells). FIG. 32C: Lanes 1 and 2, Caco-2; lanes 3 and 4, Caco-2 cells that overexpress PXR (Caco-PXR cells).
# (§2) Total RNA from the colon adenocarcinoma cell line LS174T was isolated and fractionated on a 1% formaldehyde gel and transferred onto a nylon membrane. The RNA blot was hybridized to ^32-P-labeled MDR1 cDNA probe (top panels), ^32-P-labeled CYP3A4 cDNA probe (middle panels), or 18s rRNA probe for normalization of RNA loading on the gel (bottom panels).
# (§3) FIG. 37 depicts MDR1 gene regulation in response to chrysin as studied by Northern blot analysis. […] Total RNA from the hepatocytes was isolated and fractionated on a 1% formaldehyde gel and transferred onto a nylon membrane. The RNA blot was hybridized to ^32-P-labeled MDR1 cDNA probe (top panels), ^32P-labeled CYP3A4 cDNA probe (middle panels), or 18s rRNA probe for normalization of RNA loading on the gel (bottom panels).
# Northern Blot analysis for MDR1 P-glycoprotein and CYP3A4 expression: Total RNA was prepared from cells (primary hepatocytes, LS174T, HepG2, or Caco-2) using Trizol reagent (Invitrogen, Carlsbad, Calif.). For Northern blots, 15 micrograms of total RNA was fractionated on a 1% formaldehyde gel and transferred onto a nylon membrane by capillary transfer. A 530-base pair fragment of MDR1 cDNA was obtained from PCR cloning using the sense primer […] The resulting fragment was ^32P-labeled by random priming (Invitrogen, Carlsbad, Calif.) for use as an MDR1 probe. […] All constructs and cDNAs were subjected to sequence analysis. Hybridization was performed with the ExpressHyb system according to the manufacturer's instructions (Clontech, Palo Alto, Calif.).
# [5] = tested on: hPXR / CYP3A4 enhancer
# [6] = tested on: CYP3A4 mRNA; settings: human, 48 h, 25 µM
# Text: as §1, §2, §3
# Northern Blot analysis for MDR1 P-glycoprotein and CYP3A4 expression: Total RNA was prepared from cells (primary hepatocytes, LS174T, HepG2, or Caco-2) using Trizol reagent (Invitrogen, Carlsbad, Calif.). […]
# [7] = tested on: PXR / mdr1(dr4) response element; experiment: Hep-PXR/Pgp-Luc stable cell luciferase assay
# Protocol: (§4) FIG. 35 depicts dose-response behavior to various PXR activators in stable cell lines overexpressing PXR and harboring DR4 response element. FIG. 35A: Results are shown for the stable cell line Hep-PXR/PgpLuc. FIG. 35B: Results are shown for the stable cell line Caco-PXR/PgpLuc.
# (§5) Cells were exposed to the test compounds for 48 hours at the concentrations indicated.
# FIG. 36 depicts the effect of environmental and botanical chemicals on luciferase activity in the stable cell line Hep-PXR/PgpLuc. Cells were inoculated into 96-well plates at a density of 2×10^4 cells per well. After overnight recovery, cells were treated with the test compounds at the concentrations indicated for 48 hours.
# (§6) Establishment of stable transformants containing both PXR and reporter plasmid and development of high throughput bioassay for PXR-dependent transactivation: The stable transformants Hep-PXR/mdr1(dr4)-Luc and Caco-PXR/mdr1(dr4)-Luc cell lines were generated from the parental cell lines HepG-PXR and Caco-PXR, respectively, according to the following procedure. The parental cell lines HepG-PXR and Caco-PXR, which overexpress PXR, were stably transfected with the luciferase reporter plasmid mdr1(dr4)-Luc. The transfected cells were cultured in DMEM (HepG-PXR cells) or in IMEM (Caco-PXR cells), both media supplemented with 10% fetal bovine serum and neomycin (700 micrograms per milliliter).
# (§7) For the induction assay, stable transformants were seeded in 96-wells plates at a density of 1×10^4 cells per well and allowed to recover overnight. Plates were treated with test compounds at varying concentrations, using 3 replicates per dose. After 48 hours of exposure to the test compound, cells were washed with phosphate buffered saline, lysis buffer was applied to the wells, and luciferase substrate added. Following 10 minutes for light adaptation, luminescence was monitored according to the manufacturer's instructions (Packard kit, Biomed).
# [8] = tested on: AhR (dioxin response elements); experiment: in vitro; settings: human, fold induction of luciferase activity above DMSO, DRE12-6 cells, 28 hours; TCDD 10 nanomoles per liter, omeprazole 25, 2-AAF 100, DMBA 20 micromoles per liter
# [9] = tested on: PXR / mdr1(dr4) response element; settings: human, 48 h
# [10] = tested on: PXR / mdr1(dr4) response element; experiment: Caco-PXR/Pgp-Luc stable cell luciferase assay
# Protocol: as §4, §5, §6, §7
smiles,measurement,setting,value
"CC(=O)[C@H]1[C@H](C#N)C[C@H]2[C@@H]3CC=C4C[C@@H](O)CC[C@]4(C)[C@H]3CC[C@@]21C [PCN, pregnenolone 16 alpha-carbonitrile]","fold increase in luciferase activity above DMSO, single concentrations (FIG. 15)",[1],less than one
same,CYP3A4 induction by Northern blot (in words),[2],not
same,fold increase in luciferase activity,[3],only a minor increase
same,MDR1 expression in LS174T cells (in words),"[4]; LS174T cells, 48 hours",only a slightly increase
same,"fold increase in luciferase activity above DMSO, single concentrations (FIG. 14)",[5],less than two
O=c1cc(-c2ccccc2)oc2cc(O)cc(O)c12 [chrysin],CYP3A4 expression in primary hepatocytes (in words),[6],induce the expression of both MDR1 and CYP3A4
same,fold increase in luciferase activity,"[7]; human, 48 h",5 fold
same,MDR1 P-glycoprotein expression in primary human hepatocytes (in words),"[4]; human, 48 h, 25 µM",induce the expression of both MDR1 and CYP3A4
same,fold induction,[8],4.2
COc1ccc2[nH]c([S+]([O-])Cc3ncc(C)c(OC)c3C)nc2c1 (stereo not drawn) [omeprazole],dose dependence of luciferase induction (in words),[7],dose-dependent luciferase induction
same,fold increase in luciferase activity,[9],3-6 fold
same,dose dependence of luciferase induction (in words),[10],dose-dependent luciferase induction

# — US20040077080A1, “Compositions and methods for induction of proteins involved in xenobiotic metabolism” (priority 2000, published 2004)
